# Reference: US20240279845A1, “METHOD FOR PREPARING A LIBRARY OF PEPTIDES OR A PEPTIDE” (ECOLE POLYTECHNIQUE FEDERALE DE LAUSANNE (EPFL), priority 2021, published 2024)
# Columns and labels:
# MDM2 [1] = target: T1, MDM2 (Homo sapiens, UniProt Q00987); experiment: Determining Kds of MDM2 binders by SPR; type: binding; conditions: unlabeled macrocycles, single cycle kinetics
# Experimental: FIG. 30. Binding of macrocycles to MDM2 measured by SPR. a, Single-cycle SPR sensorgrams for fluorescein-labeled macrocycles, positive control nutlin-3a (not fluorescein labeled), and negative controls (thrombin inhibitors; not fluorescein labeled). RU, response unit. b, Single-cycle SPR sensorgrams for macrocycles M6, M7, M8 and M10 (not fluorescein-labeled), performed in triplicate.
# Experiments were performed using a GE Healthcare Biacore 8K instrument. MDM2 (10 μg/mL) was dissolved in 10 mM MES buffer (pH 6.0) and immobilized on three channels of a CM5 series S chip (Cytiva, 29104988) using EDC/NHS amine coupling conditions in running buffer (10 mM PBS pH 7.4, 150 mM NaCl, 3 mM KCI, and 0.005% v/v Tween-20). Typical immobilization level was 6,000 to 7,000 resonance units (RUs). The reference cell was treated the same way without MDM2. For the measurement of binding kinetics and dissociation constants, five serial dilutions (3-fold) of macrocycles plus a DMSO blank were prepared in running buffer (10 mM PBS PH 7.4, 150 mM NaCl, 3 mM KCl, and 0.005% v/v Tween-20, and 0.5% v/v DMSO) and analyzed in single cycle kinetics mode with contact and dissociation times of 120 seconds and 60 seconds, respectively.
# MDM2 [2] = target: T1, MDM2; experiment: MDM2 fluorescence polarization competition assay (displacement of FP53 peptide probe); type: binding; conditions: purified macrocycles, 1.2 μM MDM2; read-out: IC50 displacement of fluorescent peptide probe from MDM2
# Experimental: The library was screened by dispensing to the reactions in the 384-mictrowell plates the target protein MDM2 and a reporter peptide to measure binding of the macrocycles.
# One fluorescence anisotropy reading was taken with a Tecan Infinite F200 Pro fluorescence plate reader (excitation at 485 nm, emission at 535 nm) at 25° C.The percentage of probe displacement was calculated using to the following formula,
# Volumes of 5 μL of purified macrocycles (20 mM in DMSO) were serial diluted two-fold in 100% DMSO in a low dead-volume ECHO source plate. Using acoustic droplet transfer, 150 nl of each dilution was transferred to a 384 well low volume polystyrene plate (Nunc, 264705). […] Fluorescence anisotropy was measured as described above. The percentage of bound inhibitor was calculated using the following equation
# where N is the average anisotropy of the DMSO controls, X is the anisotropy value obtained for each well, and P is the average anisotropy of the unbound probe. The ICsos were determined by plotting the percent of bound inhibitor against the logarithm of the corresponding macrocycle concentration, and the curves were fitted in GraphPad Prism 6 as described above.
# thrombin [3] = target: T2, thrombin (Homo sapiens, UniProt P00734); experiment: Substrate KM for protease screen, thrombin; type: biochemical
# T2 construct: two polypeptide chains of 36 (light chain) and 259 amino acid residues (heavy chain); purchased Haematologic Technologies HCT-0020
# Experimental: Crude macrocyclic libraries (4 mM DMSO stocks in 384-well LDV plates were transferred into 1536-well microtiter OptiPlates via ADE. Applied buffered solutions were prepared by filtration through PTFE syringe filters (0.22 μm) and assays were initiated by addition of protease (4.41 μl/well) in appropriate buffer (see list below) supplemented with bovine serum albumin (BSA; 0.1% w/v) and dispensed using a CERTUS automated liquid handler. Plates were incubated for 10 min at ambient temperature before fluorogenic substrate in appropriate buffer (4.5 μl) was added using a CERTUS automated liquid handler. Plates were centrifugated (800 g, 2 min) and fluorescence intensity was measured using a PHERAstar plate reader (excitation 384 nm, emission 440 nm) in time increments of 150 s over 15 min. Slopes of fluorescence increase (m) were calculated with Microsoft Excel (vers. 16.56). Negative controls were prepared without macrocycle. An average of 12 negative controls was used to calculate residual activities using Equation I below: […]
# where [S]0 is the initial substrate concentration and KM is the Michaelis-Menten constant^12 for the enzyme and substrate.
# thrombin [4] = target: T2, thrombin; experiment: Thrombin inhibition screen of the 96-member disulfide-cyclized peptide library and Ki of purified hit (Example 2); type: biochemical
# Experimental: FIG. 7. Library design, peptide recovery quantification by absorption, and thrombin inhibition of the cyclic peptide library. (a) Design of library comprising 96 different peptides and structures of unnatural amino acids used in library. (b) Scatter plot of cyclic peptide concentrations (mM in DMSO) for the 96 synthesized cyclic peptides quantified by absorption at 280 nm. […] (c) Thrombin inhibition measured at an average cyclic peptide concentration of 11 μM. The peptides are ordered according to their thrombin inhibition activity in the first screen (black dots; highest to lowest activity). Green dots indicate thrombin inhibition for the same cyclic peptides measured in a second screen using the same conditions.
# Despite the relatively small number of only 96 cyclic peptides and thus small chance of finding an active compounds, we performed a screen against thrombin, an important target for developing anticoagulation therapeutics, using a compound concentration of around 10 μM. […] Biological screens are typically performed at compound concentrations of around 10 μM, which means that the 100% DMSO and 150 mM DIPEA in the around 10 mM peptide stocks get 1000-fold diluted to reach concentrations of 0.1% and 150 μM, respectively, that unlikely affect most biological assays.
# MDM2 [5] = target: T1, MDM2; experiment: Competition binding experiment of fluorescein-labeled M10 with nutlin-3a on MDM2; conditions: fluorescence polarization
# Experimental: We subsequently performed a third cycle of library synthesis and screening, where we acylated the nine most promising scaffolds of the previous screens with 15 additional carboxylic acids, which were mostly cinnamic acid derivatives with larger substituents. We subsequently identified M10, which is a macrocycle based on the original scaffold and acylated with acid 120 that displaced the fluorescent probe used, F-M8, to 84% from MDM2 at 750 nM, and more efficiently than the parent compounds, M8 and M9 (FIG. 18c). […] With the fluorescein conjugate, we also performed a competition experiment with nutlin-3a that binds to a defined hydrophobic pocked of MDM2 (B. Anil et al., Acta Crystallogr. Sect. D Biol. Crystallogr. 2013, 69, 1358-1366) and is a precursor of nutlin-based clinical candidates.
# T1 sequence (Q00987 whole entry): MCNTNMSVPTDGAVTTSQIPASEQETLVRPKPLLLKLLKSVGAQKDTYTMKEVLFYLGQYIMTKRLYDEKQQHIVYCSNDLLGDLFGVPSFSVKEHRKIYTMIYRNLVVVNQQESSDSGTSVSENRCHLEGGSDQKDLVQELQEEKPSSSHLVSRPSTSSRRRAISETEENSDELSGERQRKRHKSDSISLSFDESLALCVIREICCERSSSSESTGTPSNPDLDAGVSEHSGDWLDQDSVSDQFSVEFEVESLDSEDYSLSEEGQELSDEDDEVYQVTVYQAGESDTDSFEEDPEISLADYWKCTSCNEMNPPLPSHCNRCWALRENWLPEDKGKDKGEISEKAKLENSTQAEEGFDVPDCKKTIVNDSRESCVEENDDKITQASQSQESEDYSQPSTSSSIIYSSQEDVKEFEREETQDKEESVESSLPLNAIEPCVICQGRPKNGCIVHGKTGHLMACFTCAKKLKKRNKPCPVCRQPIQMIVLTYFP
compound,measurement,setting,value
O=C(NC[C@@H]1NC(=O)[C@H]2CCCN(C2)C(=O)CCSSCCNC(=O)[C@H](Cc2c[nH]c3ccccc23)NC1=O)c1ccc(Cl)cc1 [M7],Kd,MDM2 [1],550 ± 190 nM
same,IC50,MDM2 [2],~1000 nM
O=C(NC[C@@H]1NC(=O)[C@H]2CCCN(C2)C(=O)CCSSCCNC(=O)[C@H](Cc2c[nH]c3ccccc23)NC1=O)c1ccc(Cl)s1 [M6],Kd,MDM2 [1],600 ± 300 nM
same,IC50,MDM2 [2],~1000 nM
Cc1cc(=O)oc2cc(NC(=O)[C@H](CCCNC(=N)N)NC(=O)CNC(=O)CNC(=O)OCc3ccccc3)ccc12 [Cbz-G-G-R-AMC],Km,thrombin [3],305 ± 46 µM
Mpa-Tyr-II-Pro-Mea,Ki,thrombin [4]; HPLC-purified disulfide cyclized peptide,13 ± 1 µM
same,reduction of thrombin activity,"thrombin [4]; crude cyclic peptide, compound concentration of around 10 μM",52%
nutlin-3a,competition with fluorescein conjugate of M10 for MDM2,MDM2 [5],did not compete
O=C(/C=C/c1ccccc1)NC[C@@H]1NC(=O)[C@H]2CCCN(C2)C(=O)CCSSCCNC(=O)[C@H](Cc2c[nH]c3ccccc23)NC1=O [M8],Kd,MDM2 [1],169 ± 93 nM
same,IC50,MDM2 [2],~1000 nM
